According to PMC5004175, “Abcb1 in Pigs: Molecular cloning, tissues distribution, functional analysis, and its effect on pharmacokinetics of enrofloxacin” (Scientific Reports, 2016):
Where two headings read alike, the source gives them in different places. One block for each compound: values may come before it.

Tests used:
porcine P-gp [1] = settings: 5 μM Rho123, during 2 h, p < 0.01
[2] = Tolerability of P-gp inhibitor pre-treatment in piglets; type: in vivo; settings: piglets treated with the P-gp inhibitor; dose not given
[3] = Bidirectional transport assay of enrofloxacin in MDCK parental cell monolayers; type: in vitro ADME, canine; settings: dog, MDCK cells, enrofloxacin 12 μM alone
Procedure: (§1) Transport assays were carried out as described[45] with minor modifications. MDCK and MDCK-pAbcb1 with a density of 6.6 × 10^4 cells/insert were seeded on a polyethylene terephthalate membrane insert (Millicell cell culture inserts, 1.0 μm pore size, 6.5 mm diameter) in 24-well culture plates. […] Samples were stored at −20 °C. All experiments were conducted in triplicate.
(§2) In brief, plasma was thawed at room temperature and centrifuged at 2,000 × g for 5 min. […] The organic phase was evaporated to dryness under a nitrogen stream and residue was resuspended with mobile phase solution. The samples from the transport assays were directly evaporated to dryness under a nitrogen stream and 40 μL of the mobile phase solution was used to concentrate the samples for 5 times. Twenty microliters of the mixture were injected into the HPLC column (Kromasil C18 columns, […] particle size, 250 × 4.6 mm). The mobile phase composition was 0.1 M phosphoric acid (adjusted pH to 3.5 with triethylamine)/acetonitrile (84:16, v/v) and the flow rate of mobile phase was set to 0.85 mL/min. UV absorbance was measured at 278 nm.
(§3) Apparent permeability coefficients (Papp) were calculated using the following equation: Papp = (dQ/dt)/(A × C0), where A is the area of filter membrane, C0 is the initial concentration of the test drug, dQ is the amount of transported drug, and dt is time elapsed. The efflux ratio (ER) was calculated from (Papp B → A)/(Papp A → B)[59]. Where Papp B → A and Papp A → B are BL to AP and AP to BL apparent permeability coefficients, respectively. The net efflux ratio was calculated using the following equation: Net efflux ratio = efflux ratio in MDCK-pAbcb1/efflux ratio in MDCK.

porcine P-gp [4] = test: Bidirectional transport assay of enrofloxacin in MDCK-pAbcb1 cell monolayers; type: in vitro ADME, pig
Procedure: as §1, §2, §3

in vivo = settings: pig, plasma, po, 10 mg/kg
[5] = Pharmacokinetics of oral enrofloxacin in healthy pigs with/without verapamil; settings: enrofloxacin 10 mg/kg po alone, mean ± SEM, n = 4
P-gp = P-gp inhibition (data not shown)

SMILES: COC(=O)c1ccccc1-c1c2ccc(=N)cc-2oc2cc(N)ccc12 [Rho123, rhodamine 123]
- Accumulation of Rho123 in MDCK-pAbcb1 cells compared with MDCK cells (porcine P-gp [1]): accumulated less Rho123 than MDCK cells

SMILES: C/C=C/C[C@@H](C)C(=O)[C@H]1C(=O)N[C@@H](C(C)C)C(=O)N(C)CC(=O)N(C)[C@@H](CC(C)C)C(=O)N[C@@H](C(C)C)C(=O)N(C)[C@@H](CC(C)C)C(=O)N[C@@H](C)C(=O)N[C@H](C)C(=O)N(C)[C@@H](CC(C)C)C(=O)N(C)[C@@H](CC(C)C)C(=O)N(C)[C@@H](C(C)C)C(=O)N1C [PSC-833]
- Adverse effect in treated piglets [2]: some animals began vomiting

- Papp A→B at 120 min, 12 μM ([3]; 120 min, mean ± SEM, n = 3): 12.3 ± 0.59 ×10⁻⁶ cm/s
- Papp B→A at 120 min, 12 μM ([3]; 120 min, mean ± SEM, n = 3): 12.9 ± 1.65 ×10⁻⁶ cm/s
- efflux ratio at 120 min, 12 μM ([3]; Papp B→A / Papp A→B): 1.04 ± 0.11
- Net efflux ratio (porcine P-gp [4]; enrofloxacin 12 μM alone, efflux ratio in MDCK-pAbcb1 / efflux ratio in MDCK): 2.48
- Papp B→A at 120 min, 12 μM (porcine P-gp [4]; pig, MDCK-MDR1, MDCK-pAbcb1 cells, enrofloxacin 12 μM alone, 120 min, mean ± SEM, n = 3): 19.9 ± 1.57 ×10⁻⁶ cm/s
- efflux ratio at 120 min, 12 μM (porcine P-gp [4]; pig, MDCK-pAbcb1, MDCK-pAbcb1 cells, enrofloxacin 12 μM alone, Papp B→A / Papp A→B, read-out: Efflux ratio): 2.58 ± 0.25
- efflux ratio at 120 min, 12 μM (porcine P-gp [4]; pig, MDCK-pAbcb1, enrofloxacin 12 μM alone, efflux ratio in MDCK-pAbcb1 / efflux ratio in MDCK, read-out: Net efflux ratio): > 2
- Papp A→B at 120 min, 12 μM (porcine P-gp [4]; pig, MDCK-pAbcb1 cells, enrofloxacin 12 μM alone, 120 min, mean ± SEM, n = 3): 7.78 ± 1.28 ×10⁻⁶ cm/s
- Cmax (in vivo): 3390 ± 120 ng/mL
- Tmax (in vivo): 2.01 ± 0.09 h
- k el (in vivo): 7.78e-05 s⁻¹
- AUC (area under the plasma concentration-time curve) [5]: 13.57 ± 0.96 (μg/mL)·h
- CL/F (Clearance/F) ([5]; plasma): 0.47 ± 0.01 (mg/kg/h)/(μg/mL)
- Ka (absorption rate constant) ([5]; plasma): 0.82 ± 0.11 h⁻¹
- T1/2ka (absorption half-life) ([5]; plasma): 0.88 ± 0.20 h
- T1/2ke (elimination half-life) ([5]; plasma): 2.50 ± 0.23 h
- V/F (volume of distribution/F) ([5]; plasma): 1.69 ± 0.18 (mg/kg)/(μg/mL)
SMILES: CCN1CCN(c2cc3c(cc2F)c(=O)c(C(=O)O)cn3C2CC2)CC1 [ENRO, enrofloxacin]

SMILES: COc1ccc2cc3[n+](cc2c1OC)CCc1cc2c(cc1-3)OCO2 [Berberine]
- Inhibition of P-gp (P-gp): can significantly inhibit P-gp
